# Measurements taken from patent publication US20240415878A1, “Compositions and Methods for Modulating Mitochondrial Function” (Board of Regents, The University of Texas System, priority 2021, published 2024).
# Key:
# HIF-1α = conditions: for HIF-1α stabilization: higher concentrations causing increased stabilization
# Description: HIF-1α is stabilized in Mrs2−/− mice. To examine the intrinsic role of Mrs2, Mrs2^−/− mice were challenged to LPS-induced inflammatory response. It was noticed that there was a barely detectable HIF-1α stabilization in control but a significant HIF-1α protein accumulation following LPS stimulation in Mrs2^−/− hepatocytes (Daw et al., 2020). […] It was envisioned that loss of Mrs2 in hepatocyte mitochondria might control metabolite fluxes that regulates HIF-1α stability under normoxic conditions. HIF-1α is the most commonly studied transcription factor that responds to oxygen tension and its stabilization controls numerous metabolic cascades, including glycolysis and oxidative phosphorylation (Kaelin and Ratcliffe, 2008; Lum et al., 2007; Semenza, 2013). A targeted metabolite screen was conducted to identify whether these metabolites potentially altered in Mrs2^−/− control HIF-1α stabilization. WT hepatocytes were treated with the PHD inhibitor FG-4952 for 6 hours in the presence or absence of metabolites (Buckley et al., 2012). […] Next it was explored whether citric acid mediated HIF-1α destabilization is a hydroxylation dependent mechanism by reconstitution of hydroxylation-dead mutant HIF-1α in COS-7 cells (Yan et al., 2007). […] Next tested the potency of citric acid and sodium citrate was tested. Hepatocytes isolated from WT or Mrs2^−/− mice were treated for 6 hours. HIF-1α stabilization was less affected by di- or tri-sodium citrate than by citric acid (FIG. 9G). […] The citric acid-mediated HIF-1α destabilization was intact in multiple chemical modalities (FIG. 9H) and the intracellular chelation of Mg^2+ ions suppressed FG-4952-induced HIF-1α stabilization (FIG. 9I). […] Furthermore, COS-7 cells were more sensitive to the HIF-1α stabilizing effect compared to hepatocytes. […] Next HIF-1α abundance was tested in liver tissues harvested from dietary cohorts. HIF-1α protein expression/stabilization was prominent in both Mrs2^−/− and Mrs2^−/− WD, whereas HIF-1α protein was nearly completely absent in WT WD (FIG. 9M). This supports the elevation of HIF-1α protein level as a key mechanism driving transcription changes in Mrs2^−/− WD livers.
# Immunoblotting. Crushed tissues were homogenized in lysis buffer (ThermoFisher) on ice for one minute (20-30 strokes) using an automatic Dounce homogenizer set to 2000 RPM. Whole cell lysate was prepared in lysis buffer (Abcam) using 3 sets of 3-second sonication (power level 3) intervals on ice. Protein concentration was estimated using Pierce BCA assay kit and samples were prepared and heated for 90° C. for 5 minutes. Equal amounts of protein were loaded and separated on 4%-12% Bis-Tris polyacrylamide gel (Thermo Fisher Scientific), transferred to a PVDF membrane, blocked for 1-2 h using 5% fat free skim milk, washed and finally, probed with corresponding antibodies as specified below. Antibodies were from Cell Signaling Technology (HIF-1α and Hydroxy HIF-1α dilution 1:3000, MCU dilution 1.5000, MICU1 dilution 1:3000), Abcam Abcam (CPT-1a, CPT-2, OXPHOS cocktail dilution 1:3000), ZYMED Laboratories (β-actin; dilution 1:1,000), and Amersham (secondary antibodies conjugated with peroxidase). Development was done using X-ray film using a series of timed exposures and Image J was used for densitometric analysis on scanned film images.
# [1] = test system: mitochondrial Mg^2+ uptake; assay: Metabolite screen for ER Mg2+ depletion and mitochondrial Mg2+ uptake, Mag-Green confocal imaging of hepatocytes; assay type: cell-based, murine
# Description: Targeted Metabolite Screen Identifies Lactate as activator agonist for Mitochondrial Mg^2+ Uptake. To search for agonists that promote mitochondrial Mg^2+ ([Mg^2+]m) uptake, the inventors developed a cell-based confocal fluorescence imaging. As an initial feature, the inventors tested whether GPCR agonist-induced second messengers promote Mg^2+ dynamics. To discriminate intracellular Ca^2+ and Mg^2+ dynamics, MEFs were loaded with cell permeant Ca^2+ indicator, Fluo-4-AM or Mg^2+ indicator Mag green-AM followed by GPCR agonist, thrombin stimulation. […] It is established that intracellular Ca^2+ dynamics could be monitored using a wide range of fluorescent dyes or genetically encoded Ca^2+ indicators. Conversely, Mg^2+ sensitive indicators are very limited due to either lack of agonists or robust dynamic nature. To identify the agonist, primary murine hepatocytes were loaded with [Mg^2+]i indicator, cell permeant Mag Green-AM (5 μM). Subsequently, dye loaded hepatocytes were stimulated with major cellular metabolites and mitochondrial oxidative phosphorylation (OXPHOS) inhibitors following baseline recording. […] As depicted in FIG. 1B, the reciprocal mobilization of free Mg^2+ ion from ER to mitochondria was observed upon stimulation of Lactate (5 mM) in a temporal fashion. To confirm that lactate-induced Mag-Green signals are indeed measured from mitochondrial compartment, hepatocytes were simultaneously loaded with mitochondrial marker Mito-tracker Red and Mag-Green-AM (FIG. 1C-1F). […] Conversely, sodium lactate or lactic acid (5 mM) triggered a rapid depletion of ER signal with concomitant accumulation nucleus followed by mitochondrial elevation of Mag Green signal with a lag time of ˜25 s (FIG. 1D). Besides nucleotides such as ATP, citrate is also known to chelate free Mg^2+. Since ATP is cell impermeable, citrate (5 mM) was applied and intracellular Mg^2+ mobilization monitored. […] To exclude the possibility that acidic pH of medium by lactate could alter membrane polarization, the pH was normalized. Additionally, the inventors also tested whether both sodium lactate as well as lactic acid induce mitochondrial Mg^2+ uptake. Consistent with sodium form of lactate, lactic acid also elicited a rapid ER depletion followed by mitochondrial Mg^2+ influx indicating a lactate role as an activator of Mg^2+ dynamics. Thus, natural metabolite, lactate rapidly mobilizes ER Mg^2+ which led to cytosolic elevation resulting in activation mitochondrial Mg^2+ uptake.
# Mitochondrial Mg^2+ Transporter is Temperature Sensitive. […] To assess optimal concentration of lactate required to trigger Mg^2+ depletion from ER compartment and mitochondrial Mg^2+ uptake, both ER-depletion and mitochondrial Mg^2+ uptake was measured in hepatocytes at 37° C. […] However, a consistent stronger response was perceived at 5 mM lactate stimulation (FIG. 2A and 2B). During these studies depletion of ER Mg^2+ was noticed at 37° C. and room temperature (25° C.) upon 5 mM lactate stimulation (FIG. 2C). Remarkably, mitochondrial Mg^2+ uptake was higher at 37° C. and had no effect at 25° C. showing a temperature sensitivity (FIG. 2D). Based on this experimental evidence, a wide range of temperatures were tested. To determine the temperature responsiveness, primary hepatocytes were kept between 25° C.-40° C. and cells were stimulated with 5 mM lactate. […] (FIG. 2F). Intriguingly, the lactate response was not seen at 25° C. or 30° C. (FIG. 2F).
# ER-Dependent Efflux of Free Mg^2+ Promotes Mitochondrial Mg^2+ Uptake. […] Since extracellular delivery of lactate rapidly induces ER-depletion and subsequent mitochondrial uptake, it was asked whether rapid influx of lactate regulates this mechanism. Most mammalian cells utilize monocarboxylate transporters (MCT1-4) for plasma membrane lactate entry. To test this, primary hepatocytes were treated with MCT1 or MCT1/2 inhibitors for 60 minutes. […]
# MEFs = assay: Intracellular Ca2+ and Mg2+ dynamics in MEFs (Fluo-4-AM, Mag green-AM); assay type: cell-based
# Description: Targeted Metabolite Screen Identifies Lactate as activator agonist for Mitochondrial Mg^2+ Uptake. To search for agonists that promote mitochondrial Mg^2+ ([Mg^2+]m) uptake, the inventors developed a cell-based confocal fluorescence imaging. As an initial feature, the inventors tested whether GPCR agonist-induced second messengers promote Mg^2+ dynamics. To discriminate intracellular Ca^2+ and Mg^2+ dynamics, MEFs were loaded with cell permeant Ca^2+ indicator, Fluo-4-AM or Mg^2+ indicator Mag green-AM followed by GPCR agonist, thrombin stimulation. […] It is established that intracellular Ca^2+ dynamics could be monitored using a wide range of fluorescent dyes or genetically encoded Ca^2+ indicators. Conversely, Mg^2+ sensitive indicators are very limited due to either lack of agonists or robust dynamic nature. To identify the agonist, primary murine hepatocytes were loaded with [Mg^2+]i indicator, cell permeant Mag Green-AM (5 μM). […] To confirm that lactate-induced Mag-Green signals are indeed measured from mitochondrial compartment, hepatocytes were simultaneously loaded with mitochondrial marker Mito-tracker Red and Mag-Green-AM (FIG. 1C-1F). […] Since ATP is cell impermeable, citrate (5 mM) was applied and intracellular Mg^2+ mobilization monitored. […]
# human MRS2 = target: T1, human MRS2 (Homo sapiens, UniProt Q9HD23); assay: Dynamic light scattering of purified full-length MRS2 assembly; assay type: binding; conditions: 5 mM
# T1 construct: 6xHis (N, cleaved yes); made in house; host or cells: BL21 (DE3) codon+ Escherichia coli, pET-28a
# T1 sequence (Q9HD23 58-443): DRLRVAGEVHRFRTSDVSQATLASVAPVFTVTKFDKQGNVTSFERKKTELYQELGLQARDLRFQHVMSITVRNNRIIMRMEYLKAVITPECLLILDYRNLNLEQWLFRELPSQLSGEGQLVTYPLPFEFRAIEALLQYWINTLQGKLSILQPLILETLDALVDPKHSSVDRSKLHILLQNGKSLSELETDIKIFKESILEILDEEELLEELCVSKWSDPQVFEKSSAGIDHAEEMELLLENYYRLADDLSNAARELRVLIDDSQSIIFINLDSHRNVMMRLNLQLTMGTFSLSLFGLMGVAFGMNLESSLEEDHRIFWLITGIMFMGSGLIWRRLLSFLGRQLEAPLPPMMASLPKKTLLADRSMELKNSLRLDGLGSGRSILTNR
# Protocol: Next, CPACC was assessed to determine if it directly affects the assembly of purified human MRS2 using dynamic light scattering (DLS). DLS has been used to determine whether the complex stability of proteins/channels is altered by molecular chaperones or drugs (Kitamura et al., 2006). Because of the high sensitivity of DLS to changes in complex sizes, full-length Mrs2 assembly was evaluated in the presence Ca^2+ (5 mM), Mg^2+ (5 mM), Co^2+ (5 mM) or the Mrs2 blocker CPACC (0.5 mM) (FIG. 10K, FIG. 10L, FIG. 10M, FIG. 10N, FIG. 10O). […] A concentration-response assessment confirmed robust decreases in hydrodynamic radii at all CPACC concentrations tested and as low as 10 μM (FIG. 10O).
# MRS2 cloning, expression, and purification. The full length human MRS2 (NCBI accession NP_065713.1), identified as MRS258-443 (i.e. residues 58-443) and excluding the mitochondrial targeting sequence, was cloned into pET-28a using Ndel and Xhol restriction sites. […]
# Dynamic light scattering (DIS). […] The sample was equilibrated for 5 min at 20° C. before 10 autocorrelation function acquisitions of 5 s each were recorded and averaged. […] The dependence of hydrodynamic size on CPACC concentration was determined using ≈0.5 mg/mL protein supplemented with 0.01 mM, 0.05 mM, 0.1 mM, 0.5 mM or 0.75 mM CPACC, using a similar experimental setup as described above and cumulants analysis.
compound,measurement,setting,value
"COC(=O)CNC(=O)C(=O)OC [DMOG, reference compound]",HIF-1α stabilization,HIF-1α; hepatocytes,promoted HIF-α stabilization
CC(O)C(=O)[O-].[Na+] (centres unmarked) [sodium lactate],lag time to mitochondrial elevation of Mag Green signal,[1]; 5 mM,~25 s
CC(O)C(=O)O (centres unmarked) [lactate],lactate-induced mitochondrial Mg^2+ uptake,"[1]; 5 mM, 25° C. or 30° C.",not seen
same,Lactate-induced ER Mg^2+ depletion,"[1]; 5 mM, 25° C.-40° C.",seen at all the indicated temperature range
same,lactate-induced mitochondrial Mg^2+ uptake,"[1]; 5 mM, 34° C. and 40° C.",sub-optimal
same,lactate-induced mitochondrial Mg^2+ uptake,"[1]; 5 mM, 37° C.",maximal
same,concentration that promotes ER depletion and partial uptake of Mg^2+ into mitochondria,"[1]; hepatocytes, 37° C.",≥ 2 mM
same,ER Mag-Green signal depletion and mitochondrial Mg^2+ uptake,"[1]; metabolite screen, primary murine hepatocytes",rapid and robust depletion of ER Mag-Green signal followed by a subsequent elevation in the mitochondria
CC(O)C(=O)O (centres unmarked) [lactic acid],lag time to mitochondrial elevation of Mag Green signal,[1]; 5 mM,~25 s
"[Cl][Co][Cl] [CoCl2, cobalt chloride, reference compound]",HIF-1α stabilization,HIF-1α; hepatocytes,promoted HIF-α stabilization
thrombin,cytosolic Ca^2+ mobilization,MEFs; Fluo-4-AM,rapidly elicited cytosolic Ca^2+ mobilization
same,intracellular Mg^2+ dynamics,MEFs; Mag green-AM,absent
"[Cl-].[Cl-].[Co+2] [Co^2+, reference compound]",full-length MRS2 complex sizes (DLS),human MRS2,potently decreased
O=C(O)CC(O)(CC(=O)O)C(=O)O [citrate],effect on mitochondrial and ER Mg^2+ signals,[1]; 5 mM,partly chelated both mitochondrial and ER Mg^2+ signals
"N#C/C(=C\c1cn(-c2ccccc2)c2ccccc12)C(=O)O [UK5099, reference compound]",effect of blockade of mitochondrial pyruvate entry on HIF-1α stabilization,HIF-1α; hepatocytes,did not prevent HIF-1α stabilization
"Cc1nc(C(=O)NCC(=O)O)c(O)c2ccc(Oc3ccccc3)cc12 [FG-4592, reference compound]",HIF-1α stabilization,HIF-1α; hepatocytes,promoted HIF-α stabilization
[Cl-].[Cl-].[Mg+2] [Mg^2+],HIF-1α stabilization at high levels,"HIF-1α; 10 mM, normoxia",sufficient to promote low levels of HIF-1α stabilization
